Reference: US20150125509A1, “TREATMENT OF FISH POPULATIONS WITH LUFENURON” (priority 2012, published 2015)

Test system: L. salmonis
Assay: Example 1: in-feed treatment in sea water, natural sea louse infestation, L. salmonis counts
Format: in vivo, Lepeophtheirus salmonis on Atlantic Salmon, S. salar
Conditions: for L. salmonis: all stages, Treated, average group counts / L. salmonis: pre- & adults, Efficacy / L. salmonis: pre- & adults, Treated, average group counts: sea water
Experimental: Three groups of 150 salmon (Atlantic Salmon, S. salar) of average weight 238 g were treated with medicated pellets containing lufenuron at a dose of respectively 3, 5 and 10 mg/kg/day during 7 consecutive days. The medicated pellets were prepared by dry coating commercially available fish feed pellets with a lufenuron-containing pre-mix to reach a content of 0.03, 0.05 and 0.1% (w/w) lufenuron in the fish feed and administered at a 1% feeding rate. The treatment was carried out in sea water.
Each group was maintained in a separate cage. A fourth cage containing 150 salmon of average weight 238 g was added to the study as a non-treated control group.
After treatment, the fish were exposed to natural sea louse infestation for a period of 9 months. During the study the water temperature varied between 4 and 12° C. Fish weight and sea louse numbers were assessed 1 day post-treatment, 1 week post-treatment and afterwards on a monthly basis until month 9. Counts were conducted on 10 fish at each sampling occasion. The numbers of chalimus, pre-adults and adult male, mobile and mature female L. salmonis were recorded for each fish. No distinction was made between chalimus stages I-IV or between pre-adult and adult male stages.
Efficacy was calculated using the formula:
% Efficacy=100−(100×mean of treatment group/mean of control).

[1] = 3 mg/kg/day 7 days in-feed, 1 month post-treatment
[2] = 3 mg/kg/day 7 days in-feed, 1 week post-treatment
[3] = 3 mg/kg/day 7 days in-feed, 2 month post-treatment
[4] = 3 mg/kg/day 7 days in-feed, 3 month post-treatment
[5] = 3 mg/kg/day 7 days in-feed, 4 month post-treatment
[6] = 3 mg/kg/day 7 days in-feed, 5 month post-treatment
[7] = 3 mg/kg/day 7 days in-feed, 6 month post-treatment
[8] = 3 mg/kg/day 7 days in-feed, 1 day post-treatment
[9] = 5 mg/kg/day 7 days in-feed, 1 month post-treatment
[10] = 5 mg/kg/day 7 days in-feed, 1 week post-treatment
[11] = 5 mg/kg/day 7 days in-feed, 2 month post-treatment
[12] = 5 mg/kg/day 7 days in-feed, 3 month post-treatment
[13] = 5 mg/kg/day 7 days in-feed, 4 month post-treatment
[14] = 5 mg/kg/day 7 days in-feed, 5 month post-treatment
[15] = 5 mg/kg/day 7 days in-feed, 6 month post-treatment
[16] = 5 mg/kg/day 7 days in-feed, 7 month post-treatment
[17] = 5 mg/kg/day 7 days in-feed, 8 month post-treatment
[18] = 5 mg/kg/day 7 days in-feed, 9 month post-treatment
[19] = 5 mg/kg/day 7 days in-feed, 1 day post-treatment
[20] = 10 mg/kg/day 7 days in-feed, 1 month post-treatment
[21] = 10 mg/kg/day 7 days in-feed, 1 week post-treatment
[22] = 10 mg/kg/day 7 days in-feed, 2 month post-treatment
[23] = 10 mg/kg/day 7 days in-feed, 3 month post-treatment
[24] = 10 mg/kg/day 7 days in-feed, 4 month post-treatment
[25] = 10 mg/kg/day 7 days in-feed, 5 month post-treatment
[26] = 10 mg/kg/day 7 days in-feed, 6 month post-treatment
[27] = 10 mg/kg/day 7 days in-feed, 7 month post-treatment
[28] = 10 mg/kg/day 7 days in-feed, 8 month post-treatment
[29] = 10 mg/kg/day 7 days in-feed, 9 month post-treatment
[30] = 10 mg/kg/day 7 days in-feed, 1 day post-treatment

O=C(NC(=O)c1c(F)cccc1F)Nc1cc(Cl)c(OC(F)(F)C(F)C(F)(F)F)cc1Cl (stereo not shown) [lufenuron, N-{[2,5-Dichlor-4-(1,1,2,3,3,3-hexafluorpropoxy)phenyl]carbamoyl}-2,6-difluorbenzamid]
L. salmonis: all stages, Treated, average group counts [1]: 0.00
L. salmonis: pre- & adults, Efficacy [1]: 100%
L. salmonis: pre- & adults, Treated, average group counts [1]: 0.00
L. salmonis: all stages, Treated, average group counts [2]: 0.10
L. salmonis: pre- & adults, Treated, average group counts [2]: 0.10
L. salmonis: all stages, Treated, average group counts [3]: 0.30
L. salmonis: pre- & adults, Efficacy [3]: 95%
L. salmonis: pre- & adults, Treated, average group counts [3]: 0.10
L. salmonis: all stages, Treated, average group counts [4]: 0.20
L. salmonis: pre- & adults, Efficacy [4]: 95%
L. salmonis: pre- & adults, Treated, average group counts [4]: 0.10
L. salmonis: all stages, Treated, average group counts [5]: 0.00
L. salmonis: pre- & adults, Efficacy [5]: 100%
L. salmonis: pre- & adults, Treated, average group counts [5]: 0.00
L. salmonis: all stages, Treated, average group counts [6]: 0.10
L. salmonis: pre- & adults, Efficacy [6]: 97%
L. salmonis: pre- & adults, Treated, average group counts [6]: 0.10
L. salmonis: all stages, Treated, average group counts [7]: 1.30
L. salmonis: pre- & adults, Efficacy [7]: 50%
L. salmonis: pre- & adults, Treated, average group counts [7]: 1.30
L. salmonis: all stages, Treated, average group counts [8]: 0.10
L. salmonis: pre- & adults, Treated, average group counts [8]: 0.10
L. salmonis: all stages, Treated, average group counts [9]: 1.90
L. salmonis: pre- & adults, Efficacy [9]: 90%
L. salmonis: pre- & adults, Treated, average group counts [9]: 0.10
L. salmonis: all stages, Treated, average group counts [10]: 0.00
L. salmonis: pre- & adults, Treated, average group counts [10]: 0.00
L. salmonis: all stages, Treated, average group counts [11]: 0.00
L. salmonis: pre- & adults, Efficacy [11]: 100%
L. salmonis: pre- & adults, Treated, average group counts [11]: 0.00
L. salmonis: all stages, Treated, average group counts [12]: 0.20
L. salmonis: pre- & adults, Efficacy [12]: 91%
L. salmonis: pre- & adults, Treated, average group counts [12]: 0.20
L. salmonis: all stages, Treated, average group counts [13]: 0.10
L. salmonis: pre- & adults, Efficacy [13]: 96%
L. salmonis: pre- & adults, Treated, average group counts [13]: 0.10
L. salmonis: all stages, Treated, average group counts [14]: 0.10
L. salmonis: pre- & adults, Efficacy [14]: 97%
L. salmonis: pre- & adults, Treated, average group counts [14]: 0.10
L. salmonis: all stages, Treated, average group counts [15]: 0.60
L. salmonis: pre- & adults, Efficacy [15]: 77%
L. salmonis: pre- & adults, Treated, average group counts [15]: 0.60
L. salmonis: all stages, Treated, average group counts [16]: 1.80
L. salmonis: pre- & adults, Efficacy [16]: 88%
L. salmonis: pre- & adults, Treated, average group counts [16]: 0.60
L. salmonis: all stages, Treated, average group counts [17]: 0.50
L. salmonis: pre- & adults, Efficacy [17]: 90%
L. salmonis: pre- & adults, Treated, average group counts [17]: 0.50
L. salmonis: all stages, Treated, average group counts [18]: 0.40
L. salmonis: pre- & adults, Efficacy [18]: 94%
L. salmonis: pre- & adults, Treated, average group counts [18]: 0.40
L. salmonis: all stages, Treated, average group counts [19]: 0.00
L. salmonis: pre- & adults, Treated, average group counts [19]: 0.00
L. salmonis: all stages, Treated, average group counts [20]: 3.10
L. salmonis: pre- & adults, Efficacy [20]: 100%
L. salmonis: pre- & adults, Treated, average group counts [20]: 0.00
L. salmonis: all stages, Treated, average group counts [21]: 0.20
L. salmonis: pre- & adults, Treated, average group counts [21]: 0.00
L. salmonis: all stages, Treated, average group counts [22]: 0.00
L. salmonis: pre- & adults, Efficacy [22]: 100%
L. salmonis: pre- & adults, Treated, average group counts [22]: 0.00
L. salmonis: all stages, Treated, average group counts [23]: 0.10
L. salmonis: pre- & adults, Efficacy [23]: 95%
L. salmonis: pre- & adults, Treated, average group counts [23]: 0.10
L. salmonis: all stages, Treated, average group counts [24]: 0.00
L. salmonis: pre- & adults, Efficacy [24]: 100%
L. salmonis: pre- & adults, Treated, average group counts [24]: 0.00
L. salmonis: all stages, Treated, average group counts [25]: 0.00
L. salmonis: pre- & adults, Efficacy [25]: 100%
L. salmonis: pre- & adults, Treated, average group counts [25]: 0.00
L. salmonis: all stages, Treated, average group counts [26]: 0.30
L. salmonis: pre- & adults, Efficacy [26]: 96%
L. salmonis: pre- & adults, Treated, average group counts [26]: 0.10
L. salmonis: all stages, Treated, average group counts [27]: 0.80
L. salmonis: pre- & adults, Efficacy [27]: 98%
L. salmonis: pre- & adults, Treated, average group counts [27]: 0.10
L. salmonis: all stages, Treated, average group counts [28]: 0.10
L. salmonis: pre- & adults, Efficacy [28]: 98%
L. salmonis: pre- & adults, Treated, average group counts [28]: 0.10
L. salmonis: all stages, Treated, average group counts [29]: 0.00
L. salmonis: pre- & adults, Efficacy [29]: 100%
L. salmonis: pre- & adults, Treated, average group counts [29]: 0.00
L. salmonis: all stages, Treated, average group counts [30]: 0.00
L. salmonis: pre- & adults, Treated, average group counts [30]: 0.00
protected the fish against sea louse infestation until (time post-treatment) (Example 1, 3 mg/kg treatment): 5 months
protected the fish against sea louse infestation until (time post treatment) (Example 1, 5 mg/kg treatment): 9 months
efficacy against sea lice at all time points (Example 1, 10 mg/kg group): more than 95%
protected the fish against sea louse infestation up to the end of the study (time post treatment) (Example 1, 10 mg/kg treatment): 9 months
